Results as given in patent US9353094B2, “Substituted quinoxalines as kinase inhibitors” (BOARD OF REGENTS OF THE UNIVERSITY OF NEBRASKA, priority 2010, dated 2016).

Experiments:
[1] = tested on: human breast MDA-MB-231 tumor cell line; assay: Cell growth inhibition assay (alamar blue); assay type: cell-based; settings: MDA-MB-231, 20 μM, 72 h
Procedure: (§1) The compounds were screened in a growth inhibition assay at 20 μM over a 72 h period in a panel of cancer cell lines (lung-A549; pancreatic-Aspc1; colon-HT29; breast-MDAMB231; prostate-PC3; ovarian-SKOV3 and bone-U2OS) and the results are summarized in Table 2. […] This size effect was also observed with the urea compounds from the secondary amine (6j vs. 6l and 6k vs. 6m).
(§2) Cell Growth Inhibition Assay. Human lung A549, human pancreatic AsPC1, human colorectal HT-29, human breast MDA-MB-231, human prostate PC3, human ovarian SKOV3, and human osteosarcoma U2OS tumor cell lines were cultured in basal media containing 10% FBS and maintained in a 37° C. incubator with 5% CO2. All compounds were screened in 96 well microtiter plate format. In general, each cell line was plated at optimal assay density in 95 μl of propagation media in 96 well plates and incubated overnight. The next day, a standard alamar blue assay was performed (see below) on representative wells of each cell line for a Tz calculation. Subsequently, cells were treated in duplicate with a 5 μl volume of either vehicle only, positive controls etoposide and taxol, or test compounds at 20 μM (highest soluble compound concentration). The treated cells were incubated for 72 h and then assayed for growth by alamar blue assay. Briefly, 10 μl of reagent was added to each well and the plates returned to 37° C. After 3 h, fluorescence at 544ex/590em was measured using a SpectraMax M5 (Molecular Devices) plate reader. Growth is represented as a percentage of the control cells that were treated with vehicle only and % growth inhibition was determined using the NCI algorithm: Tz=number of untreated cells at zero time, C=Number of control cells at 72 h time, and T=number of compound treated cells at 72 h time; 100*([T−Tz]/[C−Tz]).

[2] = tested on: human colorectal HT-29 tumor cell line; assay: Cell growth inhibition assay (alamar blue); assay type: cell-based; settings: HT29, 20 μM, 72 h
Procedure: as §1, §2

[3] = tested on: human lung A549 tumor cell line; assay: Cell growth inhibition assay (alamar blue); assay type: cell-based; settings: A549, 20 μM, 72 h
Procedure: as §1, §2

[4] = tested on: human osteosarcoma U2OS tumor cell line; assay: Cell growth inhibition assay (alamar blue); assay type: cell-based; settings: 72 h
Procedure: as §1, §2

[5] = tested on: human ovarian SKOV3 tumor cell line; assay: Cell growth inhibition assay (alamar blue); assay type: cell-based; settings: SKOV3, 20 μM, 72 h
Procedure: as §1, §2

[6] = tested on: human pancreatic AsPC1 tumor cell line; assay: Cell growth inhibition assay (alamar blue); assay type: cell-based; settings: AsPC1, 20 μM, 72 h
Procedure: as §1, §2

[7] = tested on: human prostate PC3 tumor cell line; assay: Cell growth inhibition assay (alamar blue); assay type: cell-based; settings: PC3, 20 μM, 72 h
Procedure: as §1, §2

[8] = tested on: panel of cancer cell lines; assay: Growth inhibition assay, whole panel; assay type: cell-based, human; settings: 20 μM, 72 h
Procedure: as §1, §2

Row | Compound | % Growth inhibition at 20 μM [1] [%] | % Growth inhibition at 20 μM [2] [%] | % Growth inhibition at 20 μM [3] [%] | % Growth inhibition at 20 μM [4] | % Growth inhibition at 20 μM [5] | % Growth inhibition at 20 μM [6] | % Growth inhibition at 20 μM [7] [%] | growth inhibition of the various cancer cell lines (in words) [8]
1 | CC(=O)Nc1ccc2nc(C)c(C)nc2c1 [5a] | 25.7 ± 5.1 | 31.7 ± 2.8 | 23.4 ± 3.3 | 31.4 ± 3.6% | 4.0 ± 3.6% | 26.2 ± 2.8% | 21.8 ± 15.1 | inhibited growth
2 | CC(=O)Nc1ccc2nc(-c3ccco3)c(-c3ccco3)nc2c1 [5b] | 20.3 ± 5.9 | 7.6 ± 5.1 | 57.8 ± 7.0 | Inactive | 9.0 ± 3.4% | Inactive | 57.7 ± 9.4 | inhibited growth
3 | O=C(Nc1ccccc1)Nc1ccc2nc(-c3ccco3)c(-c3ccco3)nc2c1 [5f] | 31.3 ± 10.7 | 52.1 ± 11.6 | 54.6 ± 2.6 | 59.6 ± 1.6% | 24.7 ± 1.1% | 9.6 ± 6.6% | 70.6 ± 1.3 | inhibited growth
4 | S=C(Nc1ccccc1)Nc1ccc2nc(-c3ccco3)c(-c3ccco3)nc2c1 [6a] | 19.1 ± 12.5 | 26.1 ± 15.0 | 18.0 ± 0.1 | 21.4 ± 8.4% | Inactive | Inactive | 56.8 ± 1.4 | active
5 | O=[N+]([O-])c1ccc(NC(=S)Nc2ccc3nc(-c4ccco4)c(-c4ccco4)nc3c2)cc1 [6d] | 9.0 ± 4.7 | 42.0 ± 1.9 | 19.2 ± 8.9 | 32.2 ± 0.1% | Inactive | Inactive | 43.4 ± 9.3 | active
6 | O=C(Nc1ccc2nc(-c3ccco3)c(-c3ccco3)nc2c1)N1CCCC1 [6h] | 18.2 ± 7.0 | 16.7 ± 3.7 | 23.3 ± 2.9 | 46.5 ± 4.4% | 16.9 ± 4.9% | 11.6 ± 4.2% | 53.1 ± 9.9 | active
7 | O=C(Nc1ccc2nc(-c3ccco3)c(-c3ccco3)nc2c1)N1CCC(Cc2ccccc2)CC1 [6k] | 90.8 ± 4.5 | 55.2 ± 4.1 | 93.1 ± 7.8 | 80.3 ± 2.4% | 47.6 ± 2.5% | >100% | >100 | active
8 | O=C(Nc1ccc2nc(-c3ccco3)c(-c3ccco3)nc2c1)N1CCOCC1 [6m] | 10.9 ± 5.0 | 19.4 ± 3.6 | 39.7 ± 12.8 | Inactive | Inactive | Inactive | 48.9 ± 7.5 | active
9 | O=C(Nc1ccc(-c2ccccc2)cc1)Nc1ccc2nc(-c3ccco3)c(-c3ccco3)nc2c1 [7d] | 50.2 ± 8.9 | 72.4 ± 7.6 | 13.8 ± 9.8 | 46.9 ± 7.4% | Inactive | Inactive | 88.5 ± 1.9 | –
